Assay results as given in US11447525B2 (NIIGATA UNIVERSITY, priority 2018, dated 2022).
Non-standard residues stand in square brackets, D forms with d. Residues, ends and D or L forms follow the SMILES beside them. *: point of attachment. 5FAM = O=C1OC2(c3ccc(O)cc3Oc3cc(O)ccc32)c2ccc(C(=O)*)cc21

Experiments:
[1] = system: pancreatic cancer cells (BxPC3, PK-8, MIA-Paca2, AsPC1, PL45, Panc-1); experiment: Accumulation of various peptides in pancreatic cancer cells (Test Example 5); format: cell-based, human; settings: 2 μM, 37° C., 2 hours
Description: Test were conducted to confirm the accumulation of various peptides in each of the cells shown below in Table 11. Further, the peptides shown below in Table 12 were used.
Each peptide was added to each of the cells shown in Table 11 in an amount sufficient to achieve a final concentration in the medium of 2 μM, and following cultivation of the cells at 37° C. for 2 hours, the sample was washed 3 times with a medium containing no peptide to remove any peptide within the medium. Subsequently, the incorporation of each of the peptides into each of the cells was evaluated visually using an inverted fluorescence microscope. Prior to the microscopic examination, the culture supernatant to which the peptide had been added was removed, and following washing three times with 1×PBS (−), a trypsin treatment was conducted to remove the adherent cells, and the resultant was immediately transferred into a new 96-well plate and once again suspended in fresh culture solution before the microscopic examination was performed. In FIG. 17, “L” indicates the cells to which FAM-PCPP11 was added, “d” indicates the cells to which FAM-d was added, “LL” indicates the cells to which FAM-LL was added, “LL2” indicates the cells to which FAM-LL2 was added, and “dd” indicates the cells to which FAM-dd was added.

[2] = system: human pancreatic cancer growth and progression mouse model (subcutaneous and intraperitoneal human pancreatic cancer cell-transplanted); experiment: Selective absorption into tissues of human pancreatic cancer growth and progression mouse model, fluorescence signal (Test Examples 3, 4, Reference Example 2); format: in vivo, Balb/c nu/nu mouse; settings: 200 μg intravenously, 30 minutes after injection; for nonspecific absorption compared with conventional PCPP11: FIG. 10A to 10D; for absorption into pancreatic malignant tumors compared with the conventional PCPP11: FIG. 11
Description: Subsequently, 200 μg of each of the fluorescent labeled peptides prepared above in “1.” was injected intravenously into a human pancreatic cancer growth and progression mouse model (Balb/c nu/nu mouse, subcutaneous and intraperitoneal human pancreatic cancer cell-transplanted model). The pharmacokinetics of the peptide 30 minutes after the intravenous injection were then analyzed by tissue analysis of the freshly dissected specimen of the administered mouse, with the absorption quantified by detection of the fluorescence signal. […] In FIG. 9A, “sc tumor” is an abbreviation for “subcutaneous tumor”. In FIG. 9B, “abd tumor” is an abbreviation for “abdominal tumor”, indicating a tumor formed intraperitoneally. Further, “br” indicates the brain, “hr” indicates the heart, “kd” indicates the kidney, and “liv” indicates the liver. Furthermore, “liv. meta” is an abbreviation for “liver metastatic tumor”, and describes a tumor that has metastasized to the liver. Moreover, “panc” indicates the pancreas, and “sp” indicates the spleen. These same abbreviations are also used in subsequent figures. Furthermore, the term “untreated” in FIG. 9A indicates tissues resected from a mouse that was not administered with any fluorescent labeled peptide.
Specifically, first, either 27 μg or 200 μg of fluorescein was injected intravenously into a human pancreatic cancer growth and progression mouse model (Balb/c nu/nu mouse, subcutaneous and intraperitoneal human pancreatic cancer cell-transplanted model). The pharmacokinetics of the FLC 30 minutes after the intravenous injection were then analyzed by tissue analysis of the freshly dissected specimen of the administered mouse, with the absorption quantified by detection of the fluorescence signal.

[3] = system: stomach cancer cells (SCH); experiment: Accumulation of FAM-labeled peptides in cells, inverted fluorescence microscope (Test Example 2); format: cell-based, human; settings: 2 μM, 37° C., 2 hours
Description: (§1) Tests were conducted to confirm the accumulation of each peptide in each of the cells shown below in Table 8. Further, among the peptides shown below in Table 9, the FAM-PCPP11 used in Test Example 1, the LL peptide in which the N-terminus had been FAM-labeled (FAM-LL), and the Ld peptide in which the N-terminus had been FAM-labeled (FAM-Ld) were used.
(§2) Each of FAM-PCPP11, FAM-LL and FAM-Ld was added to each of the cells shown in Table 8 in an amount sufficient to achieve a final concentration in the medium of 2 μM, and following cultivation of the cells at 37° C. for 2 hours, the sample was washed 3 times with a medium containing no peptide to remove any peptide within the medium. Subsequently, the incorporation of each of the peptides into each of the cells was evaluated visually using an inverted fluorescence microscope. Prior to the microscopic examination, the culture supernatant to which the peptide had been added was removed, and following washing three times with 1×PBS (−), a trypsin treatment was conducted to remove the adherent cells, and the resultant was immediately transferred into a new 96-well plate and once again suspended in fresh culture solution before the microscopic examination was performed. In FIG. 8A, “L” indicates the cells to which FAM-PCPP11 was added, “LL” indicates the cells to which FAM-LL was added, and “Ld” indicates the cells to which FAM-Ld was added. Further, the fluorescent images in the BxPC3 cells indicate a representative example of pancreatic cancer cells.
(§3) Furthermore, FIG. 8B is a graph quantifying the fluorescence detected in each of the above cells in FIG. 8A, with the fluorescence intensity detected in each cell shown relative to a value of 1.0 for the fluorescence detected in the H2110 cells, which is a cell line derived from an adenocarcinoma in a human non-small-cell lung cancer system, to which each of the FAM-PCPP11 and FAM-LL peptides had been added.

[4] = system: pancreatic cancer cells (BxPC3, PK-8, MIA-Paca2); experiment: as above; format: cell-based, human; settings: 2 μM, 37° C., 2 hours
Description: as §1, §2, §3
Further, each of FAM-PCPP11, FAM-LL and FAM-NmLL was added to each of the cells shown in Table 8 in an amount sufficient to achieve a final concentration in the medium of 2 μM, and following cultivation of the cells at 37° C. for 2 hours, the sample was washed 3 times with a medium containing no peptide to remove any peptide within the medium. Subsequently, the incorporation of each of the peptides into each of the cells was evaluated visually using an inverted fluorescence microscope. […]

[5] = system: scirrhous pancreatic cancer model mouse (BxPC3 cells; BxPC3 cells and hMSC); experiment: Selective absorption of FAM-LL in tissues of scirrhous pancreatic cancer model mouse (Test Example 6); format: in vivo, NOD/SCID mouse; settings: 200 μg into the caudal vein, 30 minutes after administration
Description: FAM-LL was administered to a pancreatic cancer model mouse having scirrhous carcinoma, and the selective absorption of the FAM-LL in various tissues of the mouse was confirmed. A scirrhous pancreatic cancer model mouse having scirrhous carcinoma that forms abundant tumor-stroma interactions was produced in accordance with the method disclosed in Reference Document 1 (Saito K et al., “Stromal mesenchymal stem cells facilitate pancreatic cancer progression by regulating specific secretory molecules through mutual cellular interaction.”, Journal of Cancer, Vol. 9, No. 16, pp. 2916-2929, 2018.). Specifically, a 6-week old NOD/SCID mouse (CLEA Japan Inc., Japan) was raised under pathogen-free conditions. BxPC3 cells (2×10^5 cells) and a cell mixture containing BxPC3 cells (1×10^5 cells) and human mesenchymal stem cells (hMSC) (1×10^5 cells) were each injected subcutaneously into the mouse.
FAM-LL (200 μg) was injected into the caudal vein of the obtained scirrhous pancreatic cancer model mouse. Subsequently, the pharmacokinetics of the peptide 30 minutes after administration were analyzed by tissue analysis of the freshly dissected specimen of the peptide-administered mouse. FIG. 18A is a series of bright-field images (left and center) and a fluorescent image (right) of the tumors in the scirrhous pancreatic cancer model mouse. […]

[6] = FIG. 8B, relative to H2110 cells = 1.0

Row | inhibitory performance on nonspecific absorption into untargeted normal organs [2] | nonspecific absorption compared with conventional PCPP11 [2] | absorption into pancreatic malignant tumors compared with the conventional PCPP11 [2] | absorption into the cancer cell nests inside the tumor tissue [5] | absorption into the tumor tissue [5] | SMILES | fluorescence compared with the other peptides [1] | fluorescence compared with the sample containing FAM-PCPP11 [3] | fluorescence compared with the sample containing FAM-PCPP11 [4] | fluorescence detected [1] | increase of quantitative value for the fluorescence compared with FAM-PCPP11 [3, 6] | increase of quantitative value for the fluorescence compared with FAM-PCPP11 [4, 6]
1 | – | – | – | – | – | C[C@@H](O)[C@H](NC(=O)[C@@H](NC(=O)[C@@H]1CCCN1C(=O)[C@H](CCCNC(=N)N)NC(=O)[C@H](CCCNC(=N)N)NC(=O)CNC(=O)[C@@H]1CCCN1C(=O)CNC(=O)[C@@H]1CCCN1C(=O)[C@H](CCCCN)NC(=O)[C@H](Cc1c[nH]cn1)NC(=O)[C@H](Cc1c[nH]c2ccccc12)NC(=O)[C@@H](NC(=O)[C@@H](NC(=O)[C@@H]1CCCN1C(=O)[C@H](CCCNC(=N)N)NC(=O)[C@H](CCCNC(=N)N)NC(=O)c1ccc2c(c1)C(=O)OC21c2ccc(O)cc2Oc2cc(O)ccc21)[C@@H](C)O)[C@@H](C)O)[C@@H](C)O)C(=O)N[C@@H](Cc1c[nH]c2ccccc12)C(=O)N[C@@H](Cc1c[nH]cn1)C(=O)N[C@@H](CCCCN)C(=O)N1CCC[C@H]1C(=O)O [FAM-LL2] (5FAM-RRPTTWHKPGPGRRPTTWHKP-OH; C-terminus assumed) | stronger fluorescence | – | – | – | – | –
2 | satisfactorily maintained | inhibited even more effectively | approximately 4 fold | – | – | C[C@H](O)[C@@H](NC(=O)[C@@H](Cc1c[nH]c2ccccc12)NC(=O)[C@@H](Cc1c[nH]cn1)NC(=O)[C@@H](CCCCN)NC(=O)[C@H]1CCCN1C(=O)CNC(=O)[C@@H]1CCCN1C(=O)[C@H](CCCCN)NC(=O)[C@H](Cc1c[nH]cn1)NC(=O)[C@H](Cc1c[nH]c2ccccc12)NC(=O)[C@@H](NC(=O)[C@@H](NC(=O)[C@@H]1CCCN1C(=O)[C@H](CCCNC(=N)N)NC(=O)[C@H](CCCNC(=N)N)NC(=O)c1ccc2c(c1)C(=O)OC21c2ccc(O)cc2Oc2cc(O)ccc21)[C@@H](C)O)[C@@H](C)O)C(=O)N[C@@H](C(=O)N1CCC[C@@H]1C(=O)N[C@H](CCCNC(=N)N)C(=O)N[C@H](CCCNC(=N)N)C(=O)O)[C@H](C)O [FAM-Ld] (5FAM-RRPTTWHKPG[dP][dK][dH][dW][dT][dT][dP][dR][dR]-OH; C-terminus assumed) | – | stronger fluorescence | stronger fluorescence | – | – | –
3 | satisfactorily maintained | inhibited even more effectively | 3 fold | strong absorption | strong absorption | C[C@@H](O)[C@H](NC(=O)[C@@H](NC(=O)[C@@H]1CCCN1C(=O)[C@H](CCCNC(=N)N)NC(=O)[C@H](CCCNC(=N)N)NC(=O)CNC(=O)[C@@H]1CCCN1C(=O)[C@H](CCCCN)NC(=O)[C@H](Cc1c[nH]cn1)NC(=O)[C@H](Cc1c[nH]c2ccccc12)NC(=O)[C@@H](NC(=O)[C@@H](NC(=O)[C@@H]1CCCN1C(=O)[C@H](CCCNC(=N)N)NC(=O)[C@H](CCCNC(=N)N)NC(=O)c1ccc2c(c1)C(=O)OC21c2ccc(O)cc2Oc2cc(O)ccc21)[C@@H](C)O)[C@@H](C)O)[C@@H](C)O)C(=O)N[C@@H](Cc1c[nH]c2ccccc12)C(=O)N[C@@H](Cc1c[nH]cn1)C(=O)N[C@@H](CCCCN)C(=O)N1CCC[C@H]1C(=O)O [FAM-LL] (5FAM-RRPTTWHKPGRRPTTWHKP-OH; C-terminus assumed) | stronger fluorescence | stronger fluorescence | stronger fluorescence | particularly strong fluorescence | at least 2.9 fold | at least 2.9 fold
